Laboratory results as given in patent US20230345986A1, “CONJUGATED DIYNES AND THEIR USE AS FLAVOR MODIFIERS” (Firmenich SA, priority 2020, published 2023).

Assays:
[1] = Sensory testing for cooling/burning (tasting of compound in water solution); assay type: in vivo; settings: for taste attributes: 20 mg/L in water solution
Procedure: At 2 mg/L, Compound 130 was tasteless.
At 39.2 mg/L, the tingling effect was weak. […] At 2 mg/L, Compound 101 was tasteless.

[2] = test system: panel of 20 taste testers; experiment: Sensory testing for salt enhancement (taste panel, sodium chloride solution); assay type: in vivo; design: key to Difference (salt enhancement effect relative to the same salt solution without the enhancer): None: No effect; +: Weak; ++: Moderate; +++: Strong
Procedure: Compounds 101 and 130 were evaluated for their salt-enhancement effects by a panel of 20 taste testers. The test compounds were added to solutions (0.25 wt %) sodium chloride, and tested for their sale enhancement effect relative to the same salt solution without the enhancer.

[3] = 10 ppm test compound in 0.25 wt % sodium chloride solution
[4] = 20 ppm test compound in 0.25 wt % sodium chloride solution

| Structure (SMILES) | taste description ([1]; 2 mg/L in water solution) | taste attributes [1] | tingling effect ([1]; 39.2 mg/L in water solution) | taste description ([1]; 125 mg/L in water solution) | Difference (salt enhancement effect relative to the same salt solution without the enhancer) [2, 3] | Remarks (salt enhancement effect) [2, 3] | Difference (salt enhancement effect relative to the same salt solution without the enhancer) [2, 4] | Remarks (salt enhancement effect) [2, 4] | taste description ([1]; 42 mg/L in water solution) |
| --- | --- | --- | --- | --- | --- | --- | --- | --- | --- |
| C#CC#CCCCCC(=O)N1CCCCC1 [Compound 101, nona-6,8-diynoic acid piperidide] | tasteless | astringent, bitter, herbal, earthy and green | weak | tingling (mid intensity), bitter, metallic, astringent and triggered an uncomfortable feeling in the throat when swallowed | None | No effect | + | Weak |  |
| C#CC#CCC/C=C/C=C/C(=O)N1CCCCC1 [Compound 130, (E,E)-2,4-undecadien-8,10-diynoic acid piperidide] | tasteless | astringent, bitter, salty, earthy, herbal, and cooling, but no warm and hot sensation was perceived |  |  | ++ | Moderate | ++ | Moderate | long-lasting warm, hot, weak cooling after taste, as well as bitter and astringent |
